{"source": "paper PMC5189922", "about": "(Journal of medicinal chemistry, 2016)", "key": {"human κ-opioid receptor": {"biological_target": "human κ-opioid receptor (Homo sapiens, UniProt P41145)", "sequence (P41145 whole entry)": "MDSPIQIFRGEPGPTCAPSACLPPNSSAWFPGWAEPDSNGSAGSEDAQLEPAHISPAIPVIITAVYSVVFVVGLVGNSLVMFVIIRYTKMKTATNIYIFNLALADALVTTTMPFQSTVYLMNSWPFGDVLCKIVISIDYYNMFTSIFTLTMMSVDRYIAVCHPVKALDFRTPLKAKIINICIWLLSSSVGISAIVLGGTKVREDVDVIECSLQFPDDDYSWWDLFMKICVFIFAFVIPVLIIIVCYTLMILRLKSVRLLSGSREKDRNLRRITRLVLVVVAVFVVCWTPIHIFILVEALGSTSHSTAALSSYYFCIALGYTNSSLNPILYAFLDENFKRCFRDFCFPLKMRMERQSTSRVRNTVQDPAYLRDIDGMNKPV", "format": "cell-based"}, "[1]": {"assay": "Accelerating rotarod performance assay"}, "[2]": {"assay": "Cumulative dose-response tail-flick assay and tolerance evaluation", "format": "in vivo, mice", "settings": "cumulative dosing, day 9 after daily 10 mg/kg s.c. on days 2–8 (tolerance)"}, "[3]": {"assay": "Conditioned place preference", "settings": "male Sprague Dawley rats, vs vehicle"}, "[4]": {"tested_on": "human µ-opioid receptor β-arrestin-2", "assay": "MOR-mediated β-arrestin-2 recruitment", "format": "cell-based"}, "Hot water": {"assay": "Hot water", "format": "in vivo, mice", "settings": "for antinociceptive effect in tail-flick assay: male B6-SJL mice, 10 s cutoff"}, "human µ-opioid receptor": {"biological_target": "human µ-opioid receptor (Homo sapiens, UniProt P35372)", "sequence (P35372 whole entry)": "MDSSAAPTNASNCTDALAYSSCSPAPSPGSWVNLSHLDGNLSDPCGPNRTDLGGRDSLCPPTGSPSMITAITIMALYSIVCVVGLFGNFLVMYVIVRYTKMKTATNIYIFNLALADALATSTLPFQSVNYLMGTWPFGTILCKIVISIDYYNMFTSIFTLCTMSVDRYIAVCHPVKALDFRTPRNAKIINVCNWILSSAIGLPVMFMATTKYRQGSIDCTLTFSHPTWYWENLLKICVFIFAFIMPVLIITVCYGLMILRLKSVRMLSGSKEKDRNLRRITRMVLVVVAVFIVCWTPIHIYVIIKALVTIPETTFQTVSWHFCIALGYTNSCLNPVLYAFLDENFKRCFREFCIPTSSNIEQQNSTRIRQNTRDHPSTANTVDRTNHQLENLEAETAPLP", "format": "cell-based"}}, "note": "Entries after “also recorded” stand apart in the source; their conditions may differ.", "data": [{"smiles": "COC(=O)[C@@H]1C=C(O)C(=O)[C@H]2[C@@]1(C)CC[C@H]1C(=O)O[C@H](c3ccoc3)C[C@]21C", "note": "[Compound 7a, Methyl-(2S,4aR,6aR/S,7R,10aR,10bR)-2-(furan-3-yl)-9-hydroxy-6a,10b-dimethyl-4,10-dioxo-2,4,4a,5,6,6a,7,10,10a,10b-decahydro-1H-;benzo[f]isochromene-7-carboxylate]", "values": [{"measurement": "activity at KORs (in words)", "setting": "human κ-opioid receptor", "value": "active"}]}, {"smiles": "COC(=O)[C@@H]1C=C(OC(=O)c2ccccc2)C(=O)[C@H]2[C@@]1(C)CC[C@H]1C(=O)O[C@H](c3ccoc3)C[C@]21C", "note": "[Compound 5, (2S,4aR, 6aR,7R,10aR,10bR)-Methyl 9-((benzoyl)oxy)-2-(furan-3-yl)-6a,10b-dimethyl-4,10-dioxo-2,4,4a,5,6,6a,7,10,10a,10b-decahydro-1H-benzo[f]isochromene-7-carboxylate]", "values": [{"measurement": "motor coordination / sedation on rotarod", "setting": "[1]; 10 mg/kg i.p., 4 to 40 rpm over 300 s", "value": "slight sedation only at the 15 min time point"}, {"measurement": "EC50 antinociception day 9", "setting": "[2]", "value": 7.9, "unit": "mg/kg"}, {"measurement": "activity at KORs (in words)", "setting": "human κ-opioid receptor", "value": "no activity"}, {"measurement": "conditioned place preference (CPP score)", "setting": "[3]; 5 mg/kg and 10 mg/kg i.p.", "value": "CPP score similar to the vehicle control; also recorded: Neither 5 (5 and 10 mg/kg) nor 2 (5 mg/kg) were significantly different to vehicle"}, {"measurement": "Emax", "setting": "[4]; read-out: % Efficacy ± SEM", "value": "96 ± 3", "unit": "%"}, {"measurement": "time of maximal antinociceptive effects", "setting": "Hot water; 10 mg/kg i.p.", "value": 30, "unit": "min"}, {"measurement": "antinociceptive effect in tail-flick assay", "setting": "Hot water; 5 and 10 mg/kg i.p., vs vehicle", "value": "significant antinociceptive effects"}, {"measurement": "antinociceptive effect after naloxone pre-treatment", "setting": "Hot water; naloxone 10 mg/kg s.c. 45 min pre-treatment", "value": "blocked"}]}, {"smiles": "CC(=O)O[C@@H]1C=C(OC(=O)c2cccc(F)c2)C(=O)[C@H]2[C@@]1(C)CC[C@H]1C(=O)O[C@H](c3ccoc3)C[C@]21C", "note": "[Compound 9b]", "values": [{"measurement": "Selectivity κ/µ", "setting": "human µ-opioid receptor", "value": ">2 000"}]}, {"smiles": "COC(=O)[C@@H]1C[C@@H](OC(=O)c2ccccc2)C(=O)[C@H]2[C@@]1(C)CC[C@H]1C(=O)O[C@H](c3ccoc3)C[C@]21C", "note": "[Compound 4]", "values": [{"measurement": "activity at KORs (in words)", "setting": "human κ-opioid receptor", "value": "complete loss of activity"}, {"measurement": "activity at MORs (in words)", "setting": "human µ-opioid receptor", "value": "complete loss of activity"}]}, {"smiles": "CC(=O)O[C@@H]1C[C@H](NC(=O)c2ccccc2)C(=O)[C@H]2[C@@]1(C)CC[C@H]1C(=O)O[C@H](c3ccoc3)C[C@]21C", "note": "[Compound 3, herkamide, reference compound]", "values": [{"measurement": "Selectivity κ/µ", "setting": "human µ-opioid receptor", "value": ">3 000"}]}, {"smiles": "COC(=O)[C@@H]1C[C@H](OC(=O)c2ccccc2)C(=O)[C@H]2[C@@]1(C)CC[C@H]1C(=O)O[C@H](c3ccoc3)C[C@]21C", "note": "[Compound 2, herkinorin, reference compound]", "values": [{"measurement": "motor coordination on rotarod", "setting": "[1]; dose not given, data not shown", "value": "no observable effect on motor co-ordination"}, {"measurement": "activity at KORs (in words)", "setting": "human κ-opioid receptor", "value": "partial agonist"}, {"measurement": "conditioned place preference (CPP score)", "setting": "[3]; 5 mg/kg", "value": "Neither 5 (5 and 10 mg/kg) nor 2 (5 mg/kg) were significantly different to vehicle"}, {"measurement": "EC50", "setting": "[4]; read-out: β-arrestin-2 recruitment EC50", "value": "> 3", "unit": "µM"}, {"measurement": "antinociceptive effect in tail-flick assay", "setting": "Hot water; 1, 5, and 10 mg/kg i.p.", "value": "no significant antinociceptive effects"}]}, {"smiles": "COC(=O)[C@@H]1CC(=O)C(O)=C2[C@@]1(C)CC[C@H]1C(=O)O[C@H](c3ccoc3)C[C@]21C", "note": "[Compound 7b, Methyl-(2S,4aR,6aS,7R,10bS)-2-(furan-3-yl)-10-hydroxy-6a,10b-dimethyl-4,9-dioxo-1,4,4a,5,6,6a,7,8,9,10b-decahydro-2H-benzo[f]isochromene-7-carboxylate]", "values": [{"measurement": "activity at KORs (in words)", "setting": "human κ-opioid receptor", "value": "completely inactive"}]}]}
